Where a SMILES comes first, the peptide text is derived from it. The star is where a group is joined. C16 diacid = O=C(O)CCCCCCCCCCCCCCC(=O)*
What was measured:
Type in all cases: cell-based
human GIP receptor [1] = target: T1, human GIP receptor (Homo sapiens, UniProt P48546); assay: cAMP agonism (CisBio cAMP Dynamic 2 HTRF assay); settings: HEK293, read-out: cAMP agonism, % Efficacy, Table 1C, HEK-293 cells
T1 sequence (P48546 22-466): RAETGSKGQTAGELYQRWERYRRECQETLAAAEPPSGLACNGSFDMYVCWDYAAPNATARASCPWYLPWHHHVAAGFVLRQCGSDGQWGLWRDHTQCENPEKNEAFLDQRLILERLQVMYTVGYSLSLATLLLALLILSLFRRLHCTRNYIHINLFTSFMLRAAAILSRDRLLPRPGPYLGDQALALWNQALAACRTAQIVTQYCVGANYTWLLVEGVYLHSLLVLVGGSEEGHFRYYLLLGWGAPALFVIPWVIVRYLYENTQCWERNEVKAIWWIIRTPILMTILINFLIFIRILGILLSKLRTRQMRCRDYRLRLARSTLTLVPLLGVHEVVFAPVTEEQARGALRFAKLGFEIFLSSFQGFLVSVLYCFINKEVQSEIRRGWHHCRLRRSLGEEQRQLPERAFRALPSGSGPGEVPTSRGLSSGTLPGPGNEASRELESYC
Experimental: To test for agonistic properties at the GIP receptor, compounds were diluted and added to cells as described above and incubated for 30 min at 37° C. The resulting increase in intracellular cAMP was determined using the CisBio cAMP Dynamic 2 HTRF Assay Kit as described above.

human GIP receptor [2] = target: T1, human GIP receptor; assay: cAMP antagonism (CisBio cAMP Dynamic 2 HTRF assay); set-up: pCMV-Script vector; settings: CisBio, HEK-293 cells; for IC50: cAMP antagonism, agonist GIP1-42 at EC50
Experimental: The in vitro functional activity of compounds towards human GIP receptor can also be determined in HEK-293 cells transiently expressing the receptor. On the day of the assay, cells were resuspended in HBSS buffer (Gibco, 14025-50) supplemented with 20 mM HEPES (Gibco, 15630-106), 0,1% Pluronic F-68 (Gibco, 24040-032) and 0,1% casein (Sigma, C4765), and plated in 384-well plates at a density of 5000 cells/well. The GIP peptide analogues of the present disclosure were diluted in HBSS buffer supplemented with 20 mM HEPES, 0,1% pluronic, 0,1% casein and 500 uM IBMX. […] The resulting decrease in intracellular cAMP was quantitatively determined using the CisBio cAMP Dynamic 2 HTRF Assay Kit. The assay is based on a competition between native cAMP produced by cells and cAMP labeled with the dye d2 for binding to a cryptate labeled antibody. The specific signal (i.e. energy transfer signal) is inversely proportional to the concentration of cAMP in the sample.
The cAMP-d2 conjugate and the antibody anti-cAMP-Cryptate, both diluted in lysis buffer provided in the kit, were added to the cells according to the manufacturer's protocol. The resulting competitive assay was incubated for 60 minutes at room temperature, and the signal was detected by using a PerkinElmer Envision® instrument with excitation at 320 nm and emission at 665 nm and 620 nm. The HTRF ratio (emission at 665 nm/620 nm*10,000) is inversely proportional to the amount of cAMP present and is converted to nM cAMP per well using a cAMP standard curve. The dose-response curves were fitted using the non-linear regression analysis (four-logistic parameter equation) in GraphPad Prism, whereby pIC50 values were estimated.

human GIP receptor [3] = target: T1, human GIP receptor; assay: cAMP accumulation, agonism (DiscoveRx HitHunter cAMP XS assay); set-up: host or cells: COS-7 (transient, calcium phosphate; pCMV-Script vector); settings: COS-7, read-out: cAMP agonism, Emax
Experimental: Transient transfected COS-7 cells expressing the human GIP receptor were seeded in white 96-well plates with a density of 3.5*10^4/well. The day after, the cells were washed twice with Hepes buffered saline (HBS) buffer and incubated with HBS and 1 mM 3-isobutyl-1-methylxanthine (IBMX) for 30 min at 37° C. To test for agonistic properties, ligands were added and incubated for 30 min at 37° C. In order to test for antagonistic properties, the cells were preincubated with the antagonists for 10 min prior to the addition of the agonist and subsequent incubated for 20 additional min. The HitHunter™ cAMP XS assay (DiscoveRx) was carried out according to the manufacturer's instructions.
In order to develop a GIP receptor antagonist with improved antagonistic properties, individual amino acid substitutions were conducted on GIP(3-30)NH2 and in particular at positions: 16, 18, 30 or 3, 16, 18, 30. The obtained peptides were lipidated at position 18 directly or via a linker. Both the agonistic and antagonistic profiles of the compounds were tested in cAMP accumulation experiments done in transiently transfected COS-7 cells expressing the human GIP receptor. To investigate if these mutated analogues still retained their antagonistic properties, their ability to inhibit a GIP-mediated cAMP response corresponding to 50-80% of maximum activation was examined.

SMILES	Emax (human GIP receptor [1]) [%]	cAMP antagonism, % inhib (human GIP receptor [2]; Table 1C) [%]	IC50 (human GIP receptor [2]; nM (IC50), Table 1C) [nM]	Emax (human GIP receptor [3]) [%]	IC50 (human GIP receptor [2]; pIC50, Table 1C) [nM]
CC[C@H](C)[C@H](NC(=O)[C@H](CO)NC(=O)[C@H](Cc1ccc(O)cc1)NC(=O)[C@H](CC(=O)O)NC(=O)[C@H](CO)NC(=O)[C@@H](NC(=O)[C@H](Cc1ccccc1)NC(=O)[C@@H](NC(=O)CNC(=O)[C@@H]1CCCN1)[C@@H](C)O)[C@@H](C)CC)C(=O)N[C@@H](C)C(=O)N[C@@H](CCSC)C(=O)N[C@@H](CC(=O)O)C(=O)N[C@@H](CCCNC(=N)N)C(=O)N[C@H](C(=O)N[C@@H](CCCCNC(=O)CCCCCCCCCCCCCCC(=O)O)C(=O)N[C@@H](CCC(N)=O)C(=O)N[C@@H](CCC(N)=O)C(=O)N[C@@H](CC(=O)O)C(=O)N[C@@H](Cc1ccccc1)C(=O)N[C@H](C(=O)N[C@@H](CC(N)=O)C(=O)N[C@@H](Cc1c[nH]c2ccccc12)C(=O)N[C@@H](CC(C)C)C(=O)N[C@@H](CC(C)C)C(=O)N[C@@H](C)C(=O)N[C@@H](CCC(N)=O)C(=O)N[C@@H](CCCNC(=N)N)C(=O)O)C(C)C)[C@@H](C)CC [AT261] (H-PGTFISDYSIAMDRIK(C16 diacid)QQDFVNWLLAQR-OH; N-terminus assumed)	0	62	200	24	
CC[C@H](C)[C@H](NC(=O)[C@H](CO)NC(=O)[C@H](Cc1ccc(O)cc1)NC(=O)[C@H](CC(=O)O)NC(=O)[C@H](CO)NC(=O)[C@@H](NC(=O)[C@H](Cc1ccccc1)NC(=O)[C@@H](NC(=O)CNC(=O)CN)[C@@H](C)O)[C@@H](C)CC)C(=O)N[C@@H](C)C(=O)N[C@@H](CCSC)C(=O)N[C@@H](CC(=O)O)C(=O)N[C@@H](CCCNC(=N)N)C(=O)N[C@H](C(=O)N[C@@H](CCCCNC(=O)CC[C@H](NC(=O)CCCCCCCCCCCCCCC(=O)O)C(=O)O)C(=O)N[C@@H](CCC(N)=O)C(=O)N[C@@H](CCC(N)=O)C(=O)N[C@@H](CC(=O)O)C(=O)N[C@@H](Cc1ccccc1)C(=O)N[C@H](C(=O)N[C@@H](CC(N)=O)C(=O)N[C@@H](Cc1c[nH]c2ccccc12)C(=O)N[C@@H](CC(C)C)C(=O)N[C@@H](CC(C)C)C(=O)N[C@@H](C)C(=O)N[C@@H](CCC(N)=O)C(=O)N[C@@H](CCCNC(=N)N)C(=O)O)C(C)C)[C@@H](C)CC [AT263] (HELM PEPTIDE1{G.G.T.F.I.S.D.Y.S.I.A.M.D.R.I.K.Q.Q.D.F.V.N.W.L.L.A.Q.R}|PEPTIDE2{[O=C(O)CCCCCCCCCCCCCCC(=O)[*:2]].[gGlu]}$PEPTIDE1,PEPTIDE2,16:R3-2:R2$$$V2.0; N-terminus assumed)	0	69	21	8	200
CC[C@H](C)[C@H](NC(=O)[C@H](CO)NC(=O)[C@H](Cc1ccc(O)cc1)NC(=O)[C@H](CC(=O)O)NC(=O)[C@H](CO)NC(=O)[C@@H](NC(=O)[C@H](Cc1ccccc1)NC(=O)[C@@H](NC(=O)CNC(=O)[C@@H](N)CO)[C@@H](C)O)[C@@H](C)CC)C(=O)N[C@@H](C)C(=O)N[C@@H](CCSC)C(=O)N[C@@H](CC(=O)O)C(=O)N[C@@H](CCCNC(=N)N)C(=O)N[C@H](C(=O)N[C@@H](CCCCNC(=O)CC[C@H](NC(=O)CCCCCCCCCCCCCCC(=O)O)C(=O)O)C(=O)N[C@@H](CCC(N)=O)C(=O)N[C@@H](CCC(N)=O)C(=O)N[C@@H](CC(=O)O)C(=O)N[C@@H](Cc1ccccc1)C(=O)N[C@H](C(=O)N[C@@H](CC(N)=O)C(=O)N[C@@H](Cc1c[nH]c2ccccc12)C(=O)N[C@@H](CC(C)C)C(=O)N[C@@H](CC(C)C)C(=O)N[C@@H](C)C(=O)N[C@@H](CCC(N)=O)C(=O)N[C@@H](CCCNC(=N)N)C(=O)O)C(C)C)[C@@H](C)CC [AT265] (HELM PEPTIDE1{S.G.T.F.I.S.D.Y.S.I.A.M.D.R.I.K.Q.Q.D.F.V.N.W.L.L.A.Q.R}|PEPTIDE2{[O=C(O)CCCCCCCCCCCCCCC(=O)[*:2]].[gGlu]}$PEPTIDE1,PEPTIDE2,16:R3-2:R2$$$V2.0; N-terminus assumed)	8	73	58.4	10	
CC[C@H](C)[C@H](NC(=O)[C@H](CO)NC(=O)[C@H](Cc1ccc(O)cc1)NC(=O)[C@H](CC(=O)O)NC(=O)[C@H](CO)NC(=O)[C@@H](NC(=O)[C@H](Cc1ccccc1)NC(=O)[C@@H](NC(=O)CNC(=O)[C@@H]1CCCN1)[C@@H](C)O)[C@@H](C)CC)C(=O)N[C@@H](C)C(=O)N[C@@H](CCSC)C(=O)N[C@@H](CC(=O)O)C(=O)N[C@@H](CCCNC(=N)N)C(=O)N[C@H](C(=O)N[C@@H](CCCCNC(=O)CC[C@H](NC(=O)CCCCCCCCCCCCCCC(=O)O)C(=O)O)C(=O)N[C@@H](CCC(N)=O)C(=O)N[C@@H](CCC(N)=O)C(=O)N[C@@H](CC(=O)O)C(=O)N[C@@H](Cc1ccccc1)C(=O)N[C@H](C(=O)N[C@@H](CC(N)=O)C(=O)N[C@@H](Cc1c[nH]c2ccccc12)C(=O)N[C@@H](CC(C)C)C(=O)N[C@@H](CC(C)C)C(=O)N[C@@H](C)C(=O)N[C@@H](CCC(N)=O)C(=O)N[C@@H](CCCNC(=N)N)C(=O)O)C(C)C)[C@@H](C)CC [AT267] (HELM PEPTIDE1{P.G.T.F.I.S.D.Y.S.I.A.M.D.R.I.K.Q.Q.D.F.V.N.W.L.L.A.Q.R}|PEPTIDE2{[O=C(O)CCCCCCCCCCCCCCC(=O)[*:2]].[gGlu]}$PEPTIDE1,PEPTIDE2,16:R3-2:R2$$$V2.0; N-terminus assumed)	4	52		16	
CC[C@H](C)[C@H](NC(=O)[C@H](CO)NC(=O)[C@H](Cc1ccc(O)cc1)NC(=O)[C@H](CC(=O)O)NC(=O)[C@H](CO)NC(=O)[C@@H](NC(=O)[C@H](Cc1ccccc1)NC(=O)[C@@H](NC(=O)CNC(=O)[C@@H](N)CO)[C@@H](C)O)[C@@H](C)CC)C(=O)N[C@@H](C)C(=O)N[C@@H](CCSC)C(=O)N[C@@H](CC(=O)O)C(=O)N[C@@H](CCCNC(=N)N)C(=O)N[C@H](C(=O)N[C@@H](CCCCNC(=O)COCCOCCNC(=O)CC[C@H](NC(=O)CCCCCCCCCCCCCCC(=O)O)C(=O)O)C(=O)N[C@@H](CCC(N)=O)C(=O)N[C@@H](CCC(N)=O)C(=O)N[C@@H](CC(=O)O)C(=O)N[C@@H](Cc1ccccc1)C(=O)N[C@H](C(=O)N[C@@H](CC(N)=O)C(=O)N[C@@H](Cc1c[nH]c2ccccc12)C(=O)N[C@@H](CC(C)C)C(=O)N[C@@H](CC(C)C)C(=O)N[C@@H](C)C(=O)N[C@@H](CCC(N)=O)C(=O)N[C@@H](CCCNC(=N)N)C(=O)O)C(C)C)[C@@H](C)CC [AT271] (HELM PEPTIDE1{S.G.T.F.I.S.D.Y.S.I.A.M.D.R.I.K.Q.Q.D.F.V.N.W.L.L.A.Q.R}|PEPTIDE2{[O=C(O)CCCCCCCCCCCCCCC(=O)[*:2]].[gGlu].[O=C(COCCOCCN[*:1])[*:2]]}$PEPTIDE1,PEPTIDE2,16:R3-3:R2$$$V2.0; N-terminus assumed)	2	73	85.8	9	

From patent publication US12187773B2, “Modified GIP peptide analogues” (Antag Therapeutics ApS, priority 2018, dated 2025)
